The source of these data is patent publication US6589758B1, “Crystal of a kinase-ligand complex and methods of use” (priority 2000, dated 2003).

Assay [1] concerns TCR-induced IL-2 secretion from hPBL T-cells. The experiment in a line: T-cell activation: TCR-induced IL-2 secretion from hPBL T-cells (ELISA). Format: cell-based. The settings on record: anti-CD3/anti-CD28 stimulation, 20 hours, FIG. 7B, read-out: IC50 inhibition of IL-2 production in human T-cell cultures. The protocol:
T-cell activation. Whole blood was obtained from normal donors and human peripheral blood lymphocytes (hPBL) were isolated by ficol-hypaque density centrifugation. T-cells were then purified from the hPBL by negative selection using an R&D column following the manufacturers directions (R&D Systems, Minneapolis, Minn.). A 96-well flat-bottomed plate was coated with 10 μg/ml of goat anti-mouse (GAM)-IgG1 (Caltag, Burlingame, Calif.) in PBS overnight at 4C. The GAM-coated plate was flicked out and anti-CD3 mAb (UCHT-1, Coulter/Immunotech, Miami, Fla.) is added at 0.2 μg/ml in AIMV medium (Gibco, Grand Island, N.Y.) for 3 hr. at 37C. Purified T-cells were pre-incubated at 1×10^5/well in AIM V with or without compound for 30 minutes then transferred to the anti-CD3 capture plate. Finally, anti-CD28 (Pharmingen, San Diego, Calif.) in AIMV (150 ng/ml final) was added to each well. Cells were incubated for 20 hours at 37C in 5% CO2 then supernatants were tested by ELISA for cytokine levels (Endogen, Woburn, Mass.).

The target of another assay is Lck (Homo sapiens, UniProt P06239). The settings on record: reported in ref [51]; cited from earlier work.
The next assay deals with T1, ZAP-70 (Homo sapiens, UniProt P43403).
T1 sequence (P43403 1-619): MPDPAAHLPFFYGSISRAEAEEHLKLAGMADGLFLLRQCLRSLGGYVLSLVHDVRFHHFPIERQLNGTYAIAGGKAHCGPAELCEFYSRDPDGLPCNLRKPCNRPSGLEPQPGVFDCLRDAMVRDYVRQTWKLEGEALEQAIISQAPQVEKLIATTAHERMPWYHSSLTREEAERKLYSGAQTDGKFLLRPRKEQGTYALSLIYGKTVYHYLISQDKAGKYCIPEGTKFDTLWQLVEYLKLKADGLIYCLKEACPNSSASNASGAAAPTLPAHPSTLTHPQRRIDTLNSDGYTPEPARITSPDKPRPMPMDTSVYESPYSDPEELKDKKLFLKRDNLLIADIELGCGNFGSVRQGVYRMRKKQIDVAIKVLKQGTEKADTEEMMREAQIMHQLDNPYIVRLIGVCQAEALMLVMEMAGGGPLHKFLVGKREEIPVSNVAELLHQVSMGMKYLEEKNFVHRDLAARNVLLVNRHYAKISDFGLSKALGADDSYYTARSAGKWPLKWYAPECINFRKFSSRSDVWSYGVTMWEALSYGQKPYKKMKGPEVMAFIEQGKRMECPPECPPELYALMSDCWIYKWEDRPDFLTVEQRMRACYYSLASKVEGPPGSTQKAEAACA
To be noted: reported in ref [51]; read-out: IC50 against ZAP-70; cited from earlier work.

Assay [2] relates to TCR-induced phosphotyrosine incorporation into TCR p23 ζ-chain and a 70 kDa protein, Jurkat cells. Type of assay: cell-based. The settings on record: FIG. 7C. The protocol: Phosphotyrosine western blotting. […] Cells were then transferred to 37° C. water bath for 1 minute. Stimulation was stopped by the addition of 5 volumes of cold PBS containing 200 μM sodium orthovanadate. Cells were spun down and lysed in 150 mM Tris/10 mM HEPES buffer, pH 7.3, containing 1% Triton X-100 and Complete protease inhibitor cocktail (Boehringer Mannheim, Germany) for 30 minutes on ice. […] Blots were probed with anti-phosphotyrosine (4G10, Upstate Biotechnology, Inc., Saranac Lake, N.Y.) and developed using ECL-plus following the manufacturers directions (Amersham, Arlington Heights, Ill.).

Read-outs that look alike come from different tables or passages of the source.

Chain of Lck (P06239 whole entry, species assumed): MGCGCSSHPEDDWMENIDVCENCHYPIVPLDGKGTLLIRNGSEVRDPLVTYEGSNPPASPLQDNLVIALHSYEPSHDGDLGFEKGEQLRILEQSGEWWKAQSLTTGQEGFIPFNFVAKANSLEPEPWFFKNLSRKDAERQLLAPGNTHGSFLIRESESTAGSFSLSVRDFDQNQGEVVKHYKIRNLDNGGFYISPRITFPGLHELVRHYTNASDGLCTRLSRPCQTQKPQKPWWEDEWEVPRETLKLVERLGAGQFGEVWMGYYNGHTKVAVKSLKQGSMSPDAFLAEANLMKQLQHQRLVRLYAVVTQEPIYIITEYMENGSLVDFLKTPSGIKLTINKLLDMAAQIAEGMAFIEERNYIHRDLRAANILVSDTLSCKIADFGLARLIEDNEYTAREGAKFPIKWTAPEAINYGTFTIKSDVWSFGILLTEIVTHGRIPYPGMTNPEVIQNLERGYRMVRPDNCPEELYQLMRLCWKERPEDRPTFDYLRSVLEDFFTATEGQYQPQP

A word on the IC50: it is the midpoint of a concentration-inhibition curve. On to `CN[C@@H]1C[C@H]2O[C@@](C)([C@@H]1OC)n1c3ccccc3c3c4c(c5c6ccccc6n2c5c31)C(=O)NC4` [staurosporine], for which, in assay [1] (Homo sapiens, T-cell), the IC50 stood at 60 nM.

As for `Cc1ccc(-c2nn(C(C)(C)C)c3ncnc(N)c23)cc1` [PP1], the “inhibitory activity against Lck compared with PP2” value on Lck is given as “approximately the same inhibitory activity”.

Take `CC(C)(C)n1nc(-c2ccc(Cl)cc2)c2c(N)ncnc21` [PP2]: the IC50 at ZAP-70 is no less than 100000 nM. Moreover, the IC50 in assay [1] came to 600 nM. For the same compound, in assay [2], the “inhibition of Lck-dependent phosphorylation of the TCR ζ-chain (p23)” value is on record as “dose-dependent inhibition” and the “inhibition of phosphorylation of a 70 kD protein (likely ZAP-70)” value is given as “inhibited”.
